Values quoted from earlier work in US20070264672A1, “DEVELOPMENT OF A NOVEL ASSAY FOR MGMT (METHYL GUANINE METHYL TRANSFERASE)” (priority 2006, published 2007).

Tests used:
MGMT = target: T1, MGMT (Homo sapiens, UniProt P16455); details: human carcinoma HT-29 cell line, after exposure to the agent
T1 construct: endogenous in cells; host or cells: HT-29 (human carcinoma cell line)
T1 sequence (P16455 1-207): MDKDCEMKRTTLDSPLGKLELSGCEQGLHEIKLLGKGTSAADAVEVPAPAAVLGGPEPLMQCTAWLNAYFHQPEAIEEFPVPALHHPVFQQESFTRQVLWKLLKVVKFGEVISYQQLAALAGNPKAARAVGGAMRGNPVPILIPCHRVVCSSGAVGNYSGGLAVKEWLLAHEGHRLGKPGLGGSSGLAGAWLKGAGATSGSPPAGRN

[1] = system: human carcinoma HT-29 cell line; details: combined with BCNU

| SMILES | duration of inhibition of MGMT activity (MGMT) [h] | effect on chemotherapy-induced cytotoxicity after depletion of MGMT (glioma cell lines) | potentiation of BCNU-induced cytotoxicity over that observed with BCNU alone [1] |
| --- | --- | --- | --- |
| CN(N=O)C(=O)N[C@H]1C(O)O[C@H](CO)[C@@H](O)[C@@H]1O (mixture of isomers) [streptozotocin] | 48 |  |  |
| Nc1nc(OCc2ccccc2)c2nc[nH]c2n1 [O^6—BG, O^6 benzylguanine] | 48 | enhanced | three logs |
